In brackets after ≈: the same amount, converted by molar mass. Where only a bound is given, the exact number is not on record here.

In series [1] the test system is various groups of microorganisms. Kind of series: Antimicrobial activity (MIC), all microorganisms tested. The format is cell-based. To be noted: 24 h, read-out: MICs against the various groups of microorganisms tested. The method, then:
(§1) The antimicrobial activity of the compounds according to the present invention were compared with the results obtained for squalamine as reported in Proc. Nat. Acad. Sci. USA 90:1354 (1993), supra, the disclosure of which is incorporated in toto herein. The data reported in the following table is the minimum inhibitory concentration (MIC) required for complete inhibition of microbial growth. The MIC was determined utilizing known micro-broth dilution methods in which inocula of 10^6 /ml of the test organism were incubated in 0.5× trypticase soy broth at 35° C. for 24 hours. MIC's were also tested under various pH conditions, with calcium chloride or magnesium chloride, or with immobilized horse serum.
(§2) The numbers in parentheses contained in the table correspond to accession numbers with the American Type Culture Collection (reference strains were either obtained from the American Type Culture Collection or from the Microbiology Laboratory at Memorial Sloan-Kettering Cancer Center; Bacterial strains were maintained on Columbia 5% sheep blood agar plates, and fungi were maintained on Sabouraud Dextrose agar plates).

Series [2] is described as follows: Hemolytic activity, minimal hemolytic concentration (MHC).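 Also: MCC here is the minimal hemolytic concentration (MHC).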 Format: cell-based, sheep. To be noted: sheep, red blood cells. The method, then: Hemolytic activity of the squalamine mimics according to the present invention were also studied by incubating sheep red blood cells for 24 hours at 37° C. in saline (final concentration of 0.5%) with or without respective concentrations of the squalamine mimics. The minimal hemolytic concentration (MHC) was determined as the lowest concentration of a mimic that raised visible hemolysis.

Series [3] relates to S. pneumoniae (6305). Kind of series: MIC, micro-broth dilution. The format is cell-based. To be noted: Streptococcus pneumoniae, 35° C., 24 hours, read-out: ANTIMICROBIAL ACTIVITY (MIC). The method, then: as §1, §2
(Dilution methods test growth across graded concentrations, often in twofold steps.)

Series [4] has as its system P. aeruginosa (2853). Kind of series: MIC, micro-broth dilution. The format is cell-based. To be noted: Pseudomonas aeruginosa, 24 h, read-out: ANTIMICROBIAL ACTIVITY (MIC). The method, then: as §1, §2
Series [5] concerns A. fumigatus (H1120). Kind of series: MIC, micro-broth dilution. The format is cell-based. To be noted: Aspergillus fumigatus, 35° C., 24 hours, read-out: ANTIMICROBIAL ACTIVITY (MIC). The procedure:
as §1, §2

For series [6], the system named is E. cloacae (13047). Kind of series: MIC, micro-broth dilution. The format is cell-based. To be noted: Enterobacter cloacae, 35° C., 24 hours, read-out: ANTIMICROBIAL ACTIVITY (MIC). The method, then: as §1, §2
The test system of series [7] is P. vulgaris (13315). Kind of series: MIC, micro-broth dilution. Format: cell-based. To be noted: Proteus vulgaris, 35° C., 24 hours, read-out: ANTIMICROBIAL ACTIVITY (MIC). The method, then: as §1, §2
Series [8] relates to S. aureus (25923). Kind of series: MIC, micro-broth dilution. To be noted: Staphylococcus aureus, 35° C., 24 hours, read-out: ANTIMICROBIAL ACTIVITY (MIC). The format is cell-based. The method, then:
as §1, §2

For series [9], the system named is C. neoformans (M68979). Kind of series: MIC, micro-broth dilution. Format: cell-based. To be noted: Cryptococcus neoformans, 24 h, read-out: ANTIMICROBIAL ACTIVITY (MIC). The procedure:
as §1, §2

Series [10] relates to S. marcescens (13880). Kind of series: MIC, micro-broth dilution. The format is cell-based. To be noted: Serratia marcescens, 24 h, read-out: ANTIMICROBIAL ACTIVITY (MIC). The procedure: as §1, §2
Series [11] has as its system C. neoformans (90012). Kind of series: MIC, micro-broth dilution. To be noted: Cryptococcus neoformans, 24 h, read-out: ANTIMICROBIAL ACTIVITY (MIC). The format is cell-based. The procedure:
as §1, §2

Series [12] concerns E. coli (25922). Kind of series: MIC, micro-broth dilution. Format: cell-based. To be noted: Escherichia coli, 35° C., 24 hours, read-out: ANTIMICROBIAL ACTIVITY (MIC). The method, then:
as §1, §2

In series [13] the test system is P. aeruginosa (10145). Kind of series: MIC, micro-broth dilution. The format is cell-based. To be noted: Pseudomonas aeruginosa, 35° C., 24 hours, read-out: ANTIMICROBIAL ACTIVITY (MIC). The procedure:
as §1, §2

Series [14] deals with S. epidermidis (12228). Kind of series: MIC, micro-broth dilution. Format: cell-based. To be noted: Staphylococcus epidermidis, 35° C., 24 hours, read-out: ANTIMICROBIAL ACTIVITY (MIC). The procedure:
as §1, §2

In series [15] the test system is E. faecium (T6480-9). Kind of series: MIC, micro-broth dilution. To be noted: Enterococcus faecium, 35° C., 24 hours, read-out: ANTIMICROBIAL ACTIVITY (MIC). The format is cell-based. The method, then: as §1, §2
The subject of series [16] is S. pyrogenes (19615). Kind of series: MIC, micro-broth dilution. The format is cell-based. To be noted: 24 h, read-out: ANTIMICROBIAL ACTIVITY (MIC). The method, then:
as §1, §2

Series [17] deals with E. faecalis (29212). Kind of series: MIC, micro-broth dilution. Format: cell-based. To be noted: Enterococcus faecalis, 35° C., 24 hours, read-out: ANTIMICROBIAL ACTIVITY (MIC). The procedure:
as §1, §2

The subject of series [18] is S. aureus (H20809). Kind of series: MIC, micro-broth dilution. The format is cell-based. To be noted: Staphylococcus aureus, 24 h, read-out: ANTIMICROBIAL ACTIVITY (MIC). The method, then: as §1, §2
Series [19] deals with C. albicans (90028). Kind of series: MIC, micro-broth dilution. The format is cell-based. To be noted: Candida albicans, 35° C., 24 hours, read-out: ANTIMICROBIAL ACTIVITY (MIC). The procedure:
as §1, §2

The test system of series [20] is S. agalactiae (13813). Kind of series: MIC, micro-broth dilution. To be noted: Streptococcus agalactiae, 35° C., 24 hours, read-out: ANTIMICROBIAL ACTIVITY (MIC). Format: cell-based. The method, then: as §1, §2
In series [21] the test system is A. fumigatus (H29709). Kind of series: MIC, micro-broth dilution. Format: cell-based. To be noted: Aspergillus fumigatus, 35° C., 24 hours, read-out: ANTIMICROBIAL ACTIVITY (MIC). The procedure:
as §1, §2

For series [22], the system named is K. pneumoniae (13883). Kind of series: MIC, micro-broth dilution. The format is cell-based. To be noted: Klebsiella pneumoniae, 24 h, read-out: ANTIMICROBIAL ACTIVITY (MIC). The procedure:
as §1, §2

Series [23] deals with S. aureus (29213). Kind of series: MIC, micro-broth dilution. The format is cell-based. To be noted: Staphylococcus aureus, 24 h, read-out: ANTIMICROBIAL ACTIVITY (MIC). The procedure: as §1, §2

As to `C[C@H](C(=O)NCCCCN)[C@H]1CC[C@H]2[C@@H]3CC=C4C[C@@H](O)CC[C@]4(C)[C@H]3CC[C@]12C` [SM-3], in series [1], the MIC is greater than 100 mg/L.
Still for that read-out and setting: in the case of `C[C@H](C(=O)NCCCCN)[C@H]1CC[C@H]2[C@@H]3CC=C4C[C@@H](OS(=O)(=O)O)CC[C@]4(C)[C@H]3CC[C@]12C` [SM-4] it was greater than 100 mg/L.
In turn, `C[C@H](CCC(=O)NCCNCCNCCN)[C@H]1CC[C@H]2[C@@H]3[C@H](O)C[C@@H]4C[C@H](O)CC[C@]4(C)[C@H]3C[C@H](O)[C@]12C` [SM-17] returned an MCC at 24 h in [2] greater than 100 µg/mL. The MIC stood at 25 mg/L (≈ 46.6 µM) in series [3]; 50 mg/L (≈ 93.1 µM) in series [4]; 25 mg/L (≈ 46.6 µM) in [5]; 50 mg/L (≈ 93.1 µM) in [6]; 50 mg/L (≈ 93.1 µM) in series [7]; 25 mg/L (≈ 46.6 µM) in series [8]. In addition, the MIC is 12.5 mg/L (≈ 23.3 µM) in series [9]; greater than 100 mg/L in [10]; 12.5 mg/L (≈ 23.3 µM) in series [11]; 50 mg/L (≈ 93.1 µM) in series [12]; 100 mg/L (≈ 186 µM) in series [13]; 25 mg/L (≈ 46.6 µM) in series [14]. Besides, the MIC came to 50 mg/L (≈ 93.1 µM) in [15]; 12.5 mg/L (≈ 23.3 µM) in [16]; 50 mg/L (≈ 93.1 µM) in series [17]; 50 mg/L (≈ 93.1 µM) in series [18]; 25 mg/L (≈ 46.6 µM) in series [19]; 12.5 mg/L (≈ 23.3 µM) in [20]. Besides, the MIC in [21] amounted to 25 mg/L (≈ 46.6 µM); in [22] it was 50 mg/L (≈ 93.1 µM); in series [23], 25 mg/L (≈ 46.6 µM).
For `C[C@H](CCC(=O)NCCNCCNCCN)[C@H]1CC[C@H]2[C@@H]3CC[C@@H]4CCCC[C@]4(C)[C@H]3CC[C@]12C` [SM-21], the MCC at 24 h in series [2] was 3.13 µg/mL. Also, the MIC was 1.56 mg/L (≈ 3.19 µM) in series [3]; 25 mg/L (≈ 51.1 µM) in [4]; 6.25 mg/L (≈ 12.8 µM) in series [5]; greater than 100 mg/L in series [6]; 50 mg/L (≈ 102 µM) in series [7]; 3.13 mg/L (≈ 6.4 µM) in [8]. The MIC in [9] is 1.56 mg/L (≈ 3.19 µM); in [10], greater than 100 mg/L; in series [11], 1.56 mg/L (≈ 3.19 µM); in [12], 50 mg/L (≈ 102 µM); in series [13] it was 25 mg/L (≈ 51.1 µM); in series [14], 1.56 mg/L (≈ 3.19 µM). The MIC in series [15] worked out at 1.56 mg/L (≈ 3.19 µM); in series [16], 3.13 mg/L (≈ 6.4 µM); in [17], 3.13 mg/L (≈ 6.4 µM); in [18] it was 3.13 mg/L (≈ 6.4 µM); in [19] it was 6.25 mg/L (≈ 12.8 µM); in [20] it was 1.56 mg/L (≈ 3.19 µM). Further, the MIC is 3.13 mg/L (≈ 6.4 µM) in [21], greater than 100 mg/L in series [22] and 3.13 mg/L (≈ 6.4 µM) in [23].

(Values after patent publication US5834453A, “Methods for the manufacture and use of antimicrobial sterol conjugates” (Lehigh University, priority 1997, dated 1998).)
